Data: paper doi:10.1101/2023.07.11.548539v1, “A side-by-side comparison of peptide-delivered antisense antibiotics employing different nucleotide mimics” (bioRxiv, 2023)
Oligonucleotides are written 5' to 3', each unit as a sugar letter and its base; * is a phosphorothioate linkage, no mark a phosphodiester; rarer units and linkages stand in square brackets, end groups in braces. Plain capitals give the bases only. d = 2'-deoxy (DNA)

Legend:
[1] = tested on: Cy5 5'-labelled acpP target RNA (40 nt); experiment: Electrophoretic mobility shift assay (EMSA); assay type: binding, Salmonella enterica; details: unconjugated ASO; ASO:RNA 1.25:1 and 2.5:1, 30 min RT, native 15 % PAGE
Method: The electrophoretic mobility shift (EMSA) assay was performed with a Cy5 5’-labelled RNA (purchased from Eurofins) encompassing the sequence spanning nucleotides −20 to +20 of acpP relative to the translation start codon. For annealing, TM buffer (10 mM Tris-HCl, 50 mM MgCl2) was used. First, 20 µM RNA was denatured by incubation at 95 °C for 5 min followed by placement on ice. Then 1 µL of RNA was added to PCR tubes containing 8 µL of water. To this 1 µL of ASOs at the indicated concentrations (25 µM or 50 µM) were added to adjust ASO:RNA ratios of 1.25:1 and 2.5:1. As untreated negative control water was added instead of ASO, while a scrambled PNA sequence served as sequence-unspecific negative control (Figure 2 and Figure S2). These mixtures were incubated for 30 min at room temperature (RT), followed by the addition of 10 µL 2x Gel Loading (GL) buffer for subsequent loading on native 15 % PAA RNA gel without urea (20 µL/sample; 6 µL of a 50 bp DNA marker + 14 µL 1x GL). The gel was run at 100-120 V for 2-3 h, concomitantly stained with ethidium bromide for 15 min and imaged on Geldoc (Isogen Life Science B.V., De Meern, the Netherlands).

[2] = tested on: fabF (3-oxoacyl-[acyl carrier protein] synthase 2) transcript; experiment: RNA-seq, fabF transcript; assay type: cell-based, Salmonella enterica serovar Typhimurium strain SL1344; details: 5 µM KFF-ASO conjugate, 15 min
Method: RNA isolation was performed using previously published protocols ([30],[31]). Bacterial overnight cultures were diluted 1:100 in fresh MHB and grown to OD600 0.5. The cultures were diluted to approximately 10^6 cfu/ml in non-cation-adjusted MHB. Afterwards, an aliquot of the bacterial solution was transferred into 5 ml low-binding tubes (LABsolute) containing the ASOs solution (adjusted such that the final concentration was 5 μM for all tested compounds). As a negative control, cells were treated with the respective volume of sterile nuclease-free water, which was used as solvent for the ASOs. […]
Total RNA was purified from bacterial pellets using the miRNeasy Mini kit (Qiagen) according to protocol #3 described in ([30]). […] RNA concentration was measured with a NanoDrop spectrophotometer.
(§1) For transcriptomic analyses, RNA samples were processed and subjected to RNA-seq at Core Unit SysMed (University of Würzburg, Germany). […] Sequencing of pooled libraries, spiked with 5% PhiX control library, was performed at 10 million reads/sample in single-end mode with 75 nt read length on the NextSeq 500 platform (Illumina) using High output sequencing kits. […]
RNA-seq data analysis was performed similarly to our previous analysis of PNA activity in S. enterica ([30]). Briefly, adapters and low-quality bases (Phred quality score <10) of raw reads were trimmed using BBduk. […]

Salmonella = experiment: RNA-seq, global transcriptome (PCA); assay type: cell-based, Salmonella enterica serovar Typhimurium strain SL1344; details: 5 µM KFF-ASO conjugate or peptide, 15 min; two independent RNA-seq experiments
Method: RNA isolation was performed using previously published protocols ([30],[31]). Bacterial overnight cultures were diluted 1:100 in fresh MHB and grown to OD600 0.5. The cultures were diluted to approximately 10^6 cfu/ml in non-cation-adjusted MHB. Afterwards, an aliquot of the bacterial solution was transferred into 5 ml low-binding tubes (LABsolute) containing the ASOs solution (adjusted such that the final concentration was 5 μM for all tested compounds). As a negative control, cells were treated with the respective volume of sterile nuclease-free water, which was used as solvent for the ASOs. After incubating the samples for 15 min at 37 °C, RNAprotect Bacteria (Qiagen) was added according to the manufacturer’s instructions. Following a 10-min incubation, cells were pelleted at 4 °C and 21,100 × g for 20 min. The supernatant was discarded and pellets were either directly used or stored at –20°C (<1 day) for subsequent bacterial RNA isolation.
Total RNA was purified from bacterial pellets using the miRNeasy Mini kit (Qiagen) according to protocol #3 described in ([30]). Briefly, cells were resuspended in 0.5 mg/ml lysozyme (Roth) in TE buffer (pH 8.0) and incubated for 5 min. Afterwards, RLT buffer supplemented with β-mercaptoethanol, and ethanol were added according to the manufacturer’s instructions. After sample loading, column wash-steps were performed according to the manual. RNA concentration was measured with a NanoDrop spectrophotometer.
as §1, with “Germany). Sequencing was run using a previously published protocol ([31]).” for “Germany).”
RNA-seq data analysis was performed similarly to our previous analysis of PNA activity in S. enterica ([30]). Briefly, adapters and low-quality bases (Phred quality score <10) of raw reads were trimmed using BBduk. Then the RNA-seq reads were mapped to the S. enterica serovar Typhimurium reference genome and the three plasmids pSLT SL1344, pCol1B9 SL1344, and pRSF1010 SL1344 ([37]) using BBMap (v38.18) and genomic features were assigned using the featureCounts command of the Subread (2.0.1) package ([38]). […]
Downstream RNA-seq analysis was performed using packages from the R/Bioconductor project. Raw read counts of all conditions were imported into edgeR (v3.34.1) ([40]) and analysed for differential expression. To filter low-count reads, features with less than 1.38 counts per million (CPM) in at least 5 libraries were ignored for further analysis. […]

Substance | Hybridization to target RNA (band shift) [1] | fabF transcript level [2] | PCA cluster of the transcriptomic response (Salmonella)
DNA-PTO: 10mer phosphorothioate-modified DNA antisense oligomer, sequence CTCATACTCT, targeting acpP (antisense dC*dT*dC*dA*dT*dA*dC*dT*dC*dT) | did not interact with the target mRNA |  | 
PMO: 10mer phosphorodiamidate morpholino antisense oligomer, sequence CTCATACTCT, targeting acpP (all phosphorodiamidate morpholino (PMO)) |  | Reduction | cluster 3
PNA: 10mer peptide nucleic acid antisense oligomer, sequence CTCATACTCT, targeting acpP (all peptide nucleic acid (PNA)) |  | Reduction | cluster 1
RNA-MOE: 10mer 2'-methoxyethylated RNA antisense oligomer, sequence CTCATACTCT, targeting acpP (all 2'-MOE, backbone and methylation of C not given here) |  |  | cluster 1
RNA-OMe: 10mer 2'-methylated RNA antisense oligomer, sequence CTCATACTCT, targeting acpP (all 2'-O-methyl, backbone and T or U not given here) |  |  | cluster 1
